# Source: patent US6440900B1, “Method for extending the life of cut flowers” (Engelhard Corporation, priority 2001, dated 2002)
# What was measured:
# fresh red roses = assay: Cut flower life test: 5 fresh red roses per beaker of treated tap water, monitored daily for bloom death; type: in vivo, rose; settings: for Average Flower Life: 5 per beaker
# Experimental: In the following examples, test were conducted with fresh red roses obtained from a single source. The stems were cut (under water) and, for each experimental test, 5 roses were placed in a beaker. The same person monitored the flowers every day (the criterion for bloom death was that the monitor would have discarded the roses if the roses were in the monitor's home). Thereafter, the average flower life in days was calculated for each experimental condition.
# Five beakers of 800 ml tap water containing 0, 2, 5, 10 and 15 ppm chlorine dioxide were used for these tests.
# Example 1 was repeated using tap water alone, tap water containing 5 ppm chlorine dioxide, tap water containing “Aquaplus®” and tap water containing 5 ppm chlorine dioxide and “Aquaplus®”. “Aquaplus®” is described as a fresh flower nutrient and water clarifier and was obtained from Syndicate Sales, Kokomo, Ind.
# [1] = Spectroscopic evaluation of the flower water for chlorine dioxide; type: physicochemical; settings: third day of the tests; uncovered beakers, tap water
# From the text: As may be seen from the results set forth in Table 1, the roses in the beaker containing no chlorine dioxide had the shortest lifetime. […] Roses with less or more chlorine dioxide had intermediate lifetimes. […] This was not surprising since the beakers were uncovered and chlorine dioxide could readily escape or decompose.
structure (smiles),measurement,setting,value
"[O][Cl+][O-] [Chlorine Dioxide, chlorine dioxide]",Average Flower Life,fresh red roses; 2 ppm chlorine dioxide in 800 ml tap water,5.6 days
same,Change of lifetime of the roses compared to no chlorine dioxide / plain water control,fresh red roses; 5 ppm chlorine dioxide,approximately doubled
same,Average Flower Life,fresh red roses; 5 ppm chlorine dioxide in 800 ml tap water,7.8 days
same,Average Flower Life,fresh red roses; 10 ppm chlorine dioxide in 800 ml tap water,5.8 days
same,Average Flower Life,fresh red roses; 15 ppm chlorine dioxide in 800 ml tap water,5.8 days
same,Flower Lifetime,"fresh red roses; Example 2, tap water containing 5 ppm ClO2",7.8 days
same,Chlorine dioxide present in the flower water,[1],no chlorine dioxide was present
